Experiments:
Assay in all cases: relative viability (nuclei count vs DMSO), 5 days (fraction); higher = more cells survive
RO-3306 = compound: C1=CC2=C(C=CC(=C2)C=C3C(=O)NC(=NCC4=CC=CS4)S3)N=C1 [RO-3306]
Procedure, shortened: (§1)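 Following overnight incubation at 37 °C, lung cancer cell lines in 1536-well plates were pinned with five library-drug doses (not always all listed) in √10 steps on vehicle-anchored plates. The cells then spent 5 days without medium change before a combined fix, permeabilisation and Hoechst stain, 4× imaging and MetaXpress nuclear counts. Viability is the treated-to-vehicle ratio of nuclei, taken as the median across plates. Only plates with control CV below 25% and at least one doubling passed.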

Foretinib = compound: COc1cc2c(Oc3ccc(NC(=O)C4(C(=O)Nc5ccc(F)cc5)CC4)cc3F)ccnc2cc1OCCCN1CCOCC1 [Foretinib] (anchor plate); conditions: 0.25 µM
Procedure, shortened: as §1

[1] = compound: O=S(=O)(c1ccccc1)N(CC(F)(F)F)c1ccc(C(O)(C(F)(F)F)C(F)(F)F)cc1
Procedure, shortened: as §1

[2] = compound: O=S(=O)(c1ccccc1)N(CC(F)(F)F)c1ccc(C(O)(C(F)(F)F)C(F)(F)F)cc1 + N=C(N)NC(=N)NCCc1ccccc1 [Phenformin] (partner 250 µM)
Procedure, shortened: (§2)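 Lung cancer cell lines were seeded in 1536-well plates and dosed by pin tool the next day, with either a single drug or a fixed anchor-drug dose combined with five library-drug doses (not always all listed) spaced in √10 steps. Five days later, one step fixed the cells and stained their nuclei (final 0.05% Triton X-100, 1% formaldehyde, 1 ug/ml Hoechst), and nuclei were counted on 4× images. Relative viability is the nuclei count in treated wells divided by the count in vehicle wells, and each value is the median of duplicate plates.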

[3] = compound: O=S(=O)(c1ccccc1)N(CC(F)(F)F)c1ccc(C(O)(C(F)(F)F)C(F)(F)F)cc1 + Cc1cc(Nc2cc(N3CCN(C)CC3)nc(Sc3ccc(NC(=O)C4CC4)cc3)n2)n[nH]1 [Tozasertib] (partner 0.1 µM)
Procedure, shortened: as §2

RO-3306 + Linsitinib = compound: C1=CC2=C(C=CC(=C2)C=C3C(=O)NC(=NCC4=CC=CS4)S3)N=C1 [RO-3306] + C[C@]1(O)C[C@@H](c2nc(-c3ccc4ccc(-c5ccccc5)nc4c3)c3c(N)nccn32)C1 [Linsitinib] (partner 1 µM)
Procedure, shortened: as §2

Row | Cell Line | relative viability (RO-3306; 0.01 µM) | relative viability (RO-3306; 0.03162 µM) | relative viability (RO-3306; 0.1 µM) | relative viability (RO-3306; 0.3162 µM) | relative viability (RO-3306; 1 µM) | relative viability (Foretinib) | relative viability ([1]; 0.8 µM) | relative viability ([1]; 2.53 µM) | relative viability ([1]; 8 µM) | relative viability ([2]; first compound 0.8 µM) | relative viability ([2]; first compound 2.53 µM) | relative viability ([2]; first compound 8 µM) | relative viability ([3]; first compound 0.8 µM) | relative viability ([3]; first compound 2.53 µM) | relative viability ([3]; first compound 8 µM) | relative viability (RO-3306 + Linsitinib; first compound 0.03162 µM) | relative viability (RO-3306 + Linsitinib; first compound 0.1 µM) | relative viability (RO-3306 + Linsitinib; first compound 0.3162 µM) | relative viability (RO-3306 + Linsitinib; first compound 1 µM) | relative viability (RO-3306 + Linsitinib; first compound 0.01 µM)
1 | LCLC-97TM1 | 0.895 | 0.799 | 0.932 | 1.04 | 0.942 | 0.937 | 0.796 | 0.837 | 0.885 | 0.448 | 0.402 | 0.419 | 0.218 | 0.21 | 0.156 | 0.167 | 0.203 | 0.202 | 0.162 | 
2 | LCLC-103H | 1.01 | 0.935 | 1.02 | 0.998 | 0.923 | 0.805 | 1.09 | 0.966 | 1.07 | 0.367 | 0.297 | 0.318 | 0.541 | 0.447 | 0.349 | 0.934 | 1.16 | 1.05 | 1.05 | 1.03
3 | LK-2 | 1.07 | 0.855 | 0.922 | 1.17 | 1.02 | 1.18 | 1.06 | 0.894 | 0.98 | 0.505 | 0.66 | 0.555 | 0.174 | 0.188 | 0.189 | 0.495 | 0.635 | 0.425 | 0.554 | 0.552
4 | LOU-NH91 | 0.931 | 0.914 | 0.934 | 0.918 | 0.852 | 0.94 | 0.984 | 0.968 | 1.05 | 0.607 | 0.562 | 0.661 | 0.735 | 0.701 | 0.678 | 0.899 | 0.982 | 0.864 | 0.899 | 0.982
5 | LU99A | 0.983 | 0.831 | 0.876 | 0.912 | 0.817 | 0.827 | 1.09 | 0.885 | 0.875 | 0.878 | 0.762 | 0.875 | 0.235 | 0.238 | 0.253 | 0.489 | 0.515 | 0.525 | 0.495 | 0.561
6 | LXF-289 | 1.01 | 1 | 1.01 | 1.02 | 1 | 0.991 | 0.949 | 0.882 | 0.843 | 0.504 | 0.475 | 0.463 | 0.213 | 0.203 | 0.153 | 0.913 | 0.969 | 0.957 | 0.961 | 1.08
7 | NCI-H23 | 0.958 | 0.715 | 0.837 | 1.03 | 1.02 | 0.969 | 1.09 | 1.07 | 1.15 | 0.828 | 0.743 | 0.699 | 0.315 | 0.307 | 0.331 | 0.443 | 0.633 | 0.514 | 0.569 | 0.774
8 | NCI-H322M | 0.86 | 0.908 | 0.854 | 0.954 | 1.01 | 1.01 | 1.08 | 0.966 | 0.866 | 0.882 | 0.812 | 0.819 | 0.562 | 0.575 | 0.467 | 0.709 | 0.923 | 1.02 | 1.03 | 0.978
9 | NCI-H358 | 1.13 | 0.779 | 0.902 | 0.947 | 0.766 | 0.694 | 0.815 | 0.796 | 0.826 | 0.265 | 0.236 | 0.261 | 0.107 | 0.0905 | 0.0846 | 0.642 | 0.656 | 0.892 | 0.517 | 0.827
10 | NCI-H441 | 1.09 | 0.795 | 1.11 | 1.13 | 1.04 | 0.994 | 1.12 | 0.896 | 0.941 | 1.16 | 0.905 | 0.813 | 0.58 | 0.588 | 0.697 | 0.385 | 0.479 | 0.554 | 0.405 | 0.53
11 | NCI-H460 | 1.05 | 0.956 | 0.983 | 1.02 | 1.04 | 1 | 1.06 | 0.949 | 0.943 | 0.613 | 0.469 | 0.451 | 0.392 | 0.417 | 0.243 |  | 0.901 | 1.3 | 0.889 | 1.14
12 | NCI-H520 | 1.05 | 0.834 | 1.01 | 1.04 | 0.957 | 0.745 | 1.1 | 0.963 | 0.982 | 0.825 | 0.568 | 0.708 | 0.435 | 0.463 | 0.476 | 0.872 | 0.82 | 1.2 | 0.824 | 1.05
13 | NCI-H596 | 0.947 | 0.807 | 0.871 | 1.03 | 0.94 | 0.881 | 0.952 | 0.942 | 0.908 | 0.805 | 0.717 | 0.667 | 0.907 | 0.761 | 0.75 | 0.903 | 1.15 | 1.04 | 1.04 | 0.954
14 | NCI-H647 | 0.881 | 0.841 | 0.928 | 1.07 | 0.864 | 1.17 | 1.14 | 0.849 | 0.877 | 0.502 | 0.552 | 0.455 | 0.425 | 0.325 | 0.167 | 1.07 | 1.21 | 1.29 | 1.07 | 1.43
15 | NCI-H650 | 0.834 | 0.803 | 0.938 | 0.992 | 0.945 | 1.02 | 0.946 | 0.814 | 0.989 | 0.396 | 0.465 | 0.509 | 0.778 | 0.771 | 0.748 | 0.672 | 0.721 | 0.859 | 0.748 | 0.598
16 | NCI-H661 | 0.995 | 0.951 | 0.978 | 0.963 | 1.06 | 0.971 | 1.04 | 0.982 | 0.971 | 0.272 | 0.333 | 0.3 | 0.333 | 0.34 | 0.361 | 0.458 | 0.581 | 0.586 | 0.728 | 0.569
17 | NCI-H727 | 0.892 | 0.704 | 1.01 | 1 | 1.2 | 0.892 | 1.08 | 0.702 | 0.898 | 0.568 | 0.378 | 0.469 | 0.605 | 0.572 | 0.674 | 0.221 | 0.28 | 0.277 | 0.35 | 0.464
18 | NCI-H838 | 1.03 | 0.908 | 0.992 | 1.07 | 0.95 | 1.03 | 1.12 | 0.962 | 1.02 | 0.656 | 0.56 | 0.627 | 0.278 | 0.268 | 0.25 | 0.742 | 1.05 | 1.15 | 0.92 | 1.11
19 | NCI-H1355 | 1.12 | 0.907 | 1.01 | 1.01 | 0.914 | 0.973 | 1.05 | 0.918 | 0.884 | 0.467 | 0.397 | 0.438 | 0.555 | 0.5 | 0.518 | 0.802 | 0.763 | 0.929 | 0.799 | 1.04
20 | NCI-H1395 | 0.895 | 0.869 | 0.729 | 0.887 | 0.707 | 1 | 0.867 | 0.894 | 0.914 | 0.438 | 0.465 | 0.482 | 0.737 | 0.671 | 0.82 | 0.954 | 1.06 | 1.02 | 1.04 | 1.1
21 | NCI-H1437 | 1.03 | 0.942 | 0.926 | 1.03 | 1.08 | 1.24 | 0.95 | 0.877 | 0.849 | 0.297 | 0.239 | 0.342 | 0.411 | 0.337 | 0.275 | 0.673 | 0.945 | 1.03 | 1.1 | 1.15
22 | NCI-H1651 | 0.978 | 0.875 | 0.994 | 1.03 | 0.934 | 0.763 | 1.05 | 0.965 | 0.944 | 0.358 | 0.292 | 0.268 | 0.734 | 0.687 | 0.564 | 0.927 | 0.922 | 1.18 | 0.977 | 0.956
23 | NCI-H1666 | 0.962 | 0.904 | 0.938 | 0.941 | 0.885 | 0.977 | 0.939 | 0.925 | 0.827 | 0.537 | 0.541 | 0.511 | 0.627 | 0.62 | 0.545 | 0.693 | 0.684 | 0.823 | 0.834 | 0.829
24 | NCI-H1734 | 1.01 | 0.808 | 0.912 | 0.991 | 0.9 | 0.84 | 1.21 | 1.01 | 0.887 | 0.562 | 0.45 | 0.354 | 0.294 | 0.29 | 0.244 | 0.578 | 0.823 | 0.891 | 0.836 | 1.05
25 | NCI-H1755 | 1.02 | 1 | 0.98 | 0.985 | 1.02 | 0.915 | 1.02 | 0.982 | 0.928 | 0.638 | 0.614 | 0.569 | 0.501 | 0.553 | 0.426 | 1 | 1.02 | 0.995 | 1.09 | 1.05
26 | NCI-H1793 | 1.09 | 0.694 | 0.865 | 0.993 | 1.12 | 0.741 | 0.758 | 0.747 | 0.785 | 0.447 | 0.332 | 0.285 | 0.31 | 0.249 | 0.269 | 0.624 | 0.931 | 1.05 | 1.01 | 1.1

Source: the supplement of paper PMC10307832
